# Results: paper PMC6701825, “Antiproliferative and Antimigratory Effects of a Novel YAP–TEAD Interaction Inhibitor Identified Using in Silico Molecular Docking” (Journal of Medicinal Chemistry, 2019)
# Columns and labels:
# [1] = system: HeLa cells; assay: Real-time IncuCyte scratch wound migration assay in HeLa cells; type: cell-based, human
# Experimental: (§1) Cell proliferation was measured using the Click-iT EdU 488 assay (Sigma-Aldrich). Briefly, the cells were treated with indicated concentrations of compounds for 24 h with the last 4 h being in the presence of 10 μM EdU. The cells were fixed in 4% formaldehyde and stained for EdU incorporation, following the kit’s standard protocol. The cells were counterstained with Hoechst 33342 nucleic acid for 20 min. Fluorescent images of at least three fields of view per well were counted using ImageJ software. Real-time analysis of cell migration was performed using an IncuCyte ZOOM live cell imaging system (Essen BioScience) according to the manufacturer’s instructions. Briefly, the cells were seeded (1.2 × 10^4 cells/well for HeLa cells, 1.5 × 10^4 cells/well for RaVSMCs, and 1 × 10^4 cells/well) into ImageLock 96-well plates. After 36 h, the cells were pretreated overnight with indicated concentrations of compounds. The wells were scratched using a WoundMaker tool, and the media were replaced containing test compounds. Phase contrast images of cell migration into the wounded area were acquired hourly for 24 h. Relative wound confluence was calculated using the Cell Migration Image analysis module of the IncuCyte ZOOM software.
# [2] = system: RaVSMCs; assay: Real-time IncuCyte scratch wound migration assay in RaVSMCs; type: cell-based, rat
# Experimental: as §1
# Supplement Figure 5: Effect of low micromolar doses of CPD3 on rat VSMC migration.
# VSMC were incubated with the indicated doses of CPD3 for 18 hours before quantification […]
# [3] = biological target: T1, TEAD1 (Homo sapiens, UniProt P28347); assay: GAL4-TEAD1 fusion / 5xGAL4-secNLUC reporter in HeLa cells; type: cell-based; conditions: 100 μM, 6 h
# T1 construct: #18881 (FLAG-YAP); host or cells: HeLa
# From the text: (§2) TEAD proteins (TEAD1–4) display a high degree of sequence conservation in residues that create the hydrophobic pocket that is essential for YAP binding.[51] YAP proteins also display a high degree of conservation in residues that interact with this pocket.[51] We therefore tested whether CPD3.1 was able to inhibit YAP-induced activity of TEAD1, TEAD2, TEAD3, and TEAD4. To quantify the effect of CPD3.1 on the activity of each individual TEAD paralog, while excluding interference from endogenously expressed TEAD1–4 proteins, we expressed each TEAD paralog (TEAD1–4) fused to the yeast GAL4 DNA-binding domain. Cells were transfected with the GAL4–TEAD expression vector together with a secreted nanoluciferase reporter gene vector under control of a promoter containing five GAL4 DNA-binding elements. This system allows us to study the effect of CPD3.1 on the activity of each individual TEAD protein in isolation, without interference from endogenously expressed transcription factors. In addition, the cells were co-transfected with a YAP expression vector to activate the GAL4–TEAD fusion-dependent transcription (see Supplement Figure 9). Basal activities of TEAD1, TEAD2, TEAD3, and TEAD4 were inhibited by CPD3.1 (Figure 7A–D). […]
# (§3) Figure 7 Compound 3.1 inhibits TEAD1, TEAD2, TEAD3, and TEAD4 activities. […] Secreted nano-luciferase activity was quantified in the conditioned media. […]
# [4] = biological target: T2, TEAD4 (Homo sapiens, UniProt Q15561); assay: GAL4-TEAD4 fusion / 5xGAL4-secNLUC reporter in HeLa cells; type: cell-based; conditions: 100 μM, 6 h
# T2 construct: #18881 (FLAG-YAP); host or cells: HeLa
# From the text: as §2, §3
# [5] = system: TEAD-independent GAL4 reporter vector; assay: TEAD-independent reporter vector basal activity (Supplement Figure 10A); type: cell-based; conditions: 6 hours
# From the text: as §2, with “7A–D). This likely reflects the inhibition of TEAD activity driven by endogenous expression of YAP.” for “7A–D).”
# [6] = system: TEAD-independent minimal TNT1 gene promoter; assay: Minimal TNT1 promoter-luciferase (minP-LUC) reporter in RaVSMCs; type: cell-based, rat; conditions: 6 h
# Experimental: Figure 3 Compound 3 inhibits TEAD target gene expression, cell proliferation, and cell migration. HeLa cells (A) and RaVSMCs (B) were transfected with CCN1-LUC, CTGF-LUC or minimal promoter-LUC (minP-LUC) reporter plasmids and treated with indicated concentrations of compound 3 for 6 h. Cell lysates were assayed for fire-fly luciferase activity (n = 3). HeLa cells (C) and RaVSMCs (D) were treated with indicated concentrations of compound 3 for 18 h, followed by a 6 h labeling with 10 μM EdU (n = 4). HeLa cells (E) and RaVSMCs (F) were treated with the indicated concentrations of compound 3 and migration quantified using a real-time IncuCyte scratch wound assay (n = 4). * = p < 0.05, ** = p < 0.01, *** = p < 0.001.
# TNT1-minP reporter containing the Troponin-T minimal promoter was generated by digesting 8xGTIIC-luciferase plasmid (Addgene #34615) with Kpn1 and BglII to remove the TEAD elements, followed by blunt end re-ligation. A 2.177 kb fragment of the human CCN1 promoter containing two proximal TEAD elements (Hg19;chr1:86044316–chr1:86046493) was described previously[39] and cloned into pGL4-luciferase (Promega). The proximal promoter regions of the CTGF (Hg19;chr6:132272455–132272687) promoter, containing a consensus TEAD-binding element, was amplified by PCR from human genomic DNA and cloned into the Kpn1 and Nhe1 sites of pGL4-luciferase. […]
# T1 sequence (P28347 whole entry, the tested form may be a part): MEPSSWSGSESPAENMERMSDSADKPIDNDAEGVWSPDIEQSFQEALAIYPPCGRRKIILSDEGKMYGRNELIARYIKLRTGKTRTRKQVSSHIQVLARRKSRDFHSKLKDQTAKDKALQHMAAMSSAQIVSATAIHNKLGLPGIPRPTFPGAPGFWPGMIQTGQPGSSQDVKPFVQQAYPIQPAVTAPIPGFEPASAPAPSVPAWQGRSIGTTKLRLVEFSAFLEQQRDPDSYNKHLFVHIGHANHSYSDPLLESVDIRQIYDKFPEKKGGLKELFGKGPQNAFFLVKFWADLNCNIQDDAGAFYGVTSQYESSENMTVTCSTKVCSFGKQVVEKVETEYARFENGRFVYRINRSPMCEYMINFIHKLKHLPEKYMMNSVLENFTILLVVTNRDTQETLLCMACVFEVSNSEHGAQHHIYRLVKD
# T2 sequence (Q15561 whole entry, the tested form may be a part): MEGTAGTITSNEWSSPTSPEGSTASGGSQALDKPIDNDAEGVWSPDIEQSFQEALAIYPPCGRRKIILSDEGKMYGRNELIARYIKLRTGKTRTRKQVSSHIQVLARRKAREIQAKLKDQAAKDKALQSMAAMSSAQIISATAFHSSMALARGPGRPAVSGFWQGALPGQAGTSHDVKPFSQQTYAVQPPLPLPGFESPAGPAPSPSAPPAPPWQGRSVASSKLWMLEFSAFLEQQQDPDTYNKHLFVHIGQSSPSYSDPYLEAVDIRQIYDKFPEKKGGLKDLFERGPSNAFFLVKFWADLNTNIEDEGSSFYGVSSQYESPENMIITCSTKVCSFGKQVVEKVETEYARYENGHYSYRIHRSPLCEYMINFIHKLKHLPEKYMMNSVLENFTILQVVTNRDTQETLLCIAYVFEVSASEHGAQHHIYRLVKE
Structure (SMILES),cell migration (scratch wound) [1],cell migration (scratch wound) [2],basal activity of GAL4-TEAD1 [3],YAP-stimulated activity of GAL4-TEAD1 ([3]; YAP overexpression),basal activity of GAL4-TEAD4 [4],YAP-stimulated activity of GAL4-TEAD4 ([4]; YAP overexpression),basal activity of a TEAD-independent GAL4 reporter vector [5],activity of TEAD-independent minimal TNT1 promoter (minP-LUC) [6]
Cc1ccc2c(c1)c1c3n2CCNC3CCC1 (stereo not shown) [CPD3.1],"significantly inhibited HeLa cell migration at 40, 60, and 80 μM","inhibited in a dose-dependent manner by 2, 10, and 20 μM CPD3.1",inhibited,significantly inhibited,inhibited,significantly inhibited,did not inhibit the basal activity,
Cc1ccc2c(c1)c1c3n2CCN(CC(O)CN2CCN(C(=O)c4ccco4)CC2)C3CCC1 (stereo not shown) [CPD3],dose-dependently inhibited,dose-dependently inhibited,,,,,,not inhibited by any concentration
